In one test the test system is A375-NRAS^Q61K cells. Put plainly: CTGlo Cell Viability Assay, A375-NRAS^Q61K (A375.11) cells, 96 hours. The test is classed as cell-based, human. Conditions: A375.11 (A375-NRAS^Q61K) cells; for CTGlo A375.11 96 hours Emax / Emax: lowest % viability achieved. How it is done: Compounds of this invention were tested for their effect on the viability of A375-NRAS^Q61K cells by quantification of ATP using the CellTiter-Glo® 2.0 Cell Viability Assay (Catalog No. G9243, Promega, Madison, WI, USA). This assay produces a luminescent signal in the presence of ATP, which is indicative of metabolically active cells, making the luminescence readout proportional to the number of viable cells.
A375-NRAS^Q61K cells (harboring BRAF homozygous V600E mutation and NRAS homozygous Q61K mutation) were purchased from ATCC (Catalog No. CRL-1619IG-2, Manassas, VA, USA). A375-NRAS^Q61K cells (also referred to here as A375.11) were maintained at 37° C. in an atmosphere of 5% CO2 in Dulbecco's modified Eagle Medium (DMEM) with high glucose (Catalog No. 11965092), supplemented with 10% fetal bovine serum (FBS; Catalog No. 10437036), and 10 mM HEPES (Catalog No. 15630130), all obtained from Thermofisher Scientific (Waltham, MA, USA). Cell culture flasks and 384-well microplates were acquired from VWR (Radnor, PA, USA).
Test compounds were prepared by dissolving neat compounds in DMSO (Catalog No. D8418, Sigma-Aldrich, Inc., St. Louis, MO, USA) to generate 10 mM stock solutions, which were serially diluted (half log) in DMSO to generate an 11-point dose series (1000× final treatment concentration) in a 384-Well Low Dead Volume Microplate (Catalog No. LP-0200, Labcyte, San Jose, CA, USA). Using the Echo 550 Acoustic Liquid Handler (Labcyte), 50 nL of serially diluted compound solutions were dispensed in duplicate to 384-well TC-treated microplates (Catalog No. 3571, Corning, Glendale, CA, USA) and 50 nL of DMSO was dispensed to control wells. A375-NRAS^Q61K cells were resuspended in growth media and added to 384-well plates containing a […] of compounds in duplicate (maximum 10 μM concentration for final treatment) at a density of 250 cells/well in 50 μl. Cells were also plated to a 384-well plate with no compound treatment, to which CellTiter-Glo® reagent was added and luminescence was read right after plating to act as a baseline signal at time of plating (To). Plates treated with compound were then spun briefly, and cells were incubated with compound at 37° C. for 96 hours.
After 96 hours compound treatment, CellTiter-Glo® reagent was added to the cells at 25 μl per well and luminescence was read out on the PHERAstar plate reader (BMG Labtech, Ortenberg, Germany). Cells treated with DMSO only (no test compound treatment) were used as the negative control (N). DMSO treated cells with no CellTiter-Glo® reagent added were used as the background or positive control (P). Viability was determined by subtracting out the average background signal (P) and normalized to the average untreated signal (N) set at 100%.
Data were analyzed with a 4-parameter logistic fit to generate sigmoidal dose-response curves. The half-maximal inhibition of cell growth (GI50) is the concentration at which the fitted curve crosses 50%. The Emax, or maximum effect of each compound, represents the lowest % viability achieved following compound treatment.

In a further test the target is T1, BRAF V600E (Homo sapiens, UniProt P15056+Q96SW2, V600E).
T1 construct: knock-in of the HiBiT tag to the endogenous BRAF V600E locus; host or cells: A375.10 (A375 clonal line, CRISPR HiBiT knock-in at the endogenous BRAF V600E locus)
T1 sequence (P15056 whole entry V600E): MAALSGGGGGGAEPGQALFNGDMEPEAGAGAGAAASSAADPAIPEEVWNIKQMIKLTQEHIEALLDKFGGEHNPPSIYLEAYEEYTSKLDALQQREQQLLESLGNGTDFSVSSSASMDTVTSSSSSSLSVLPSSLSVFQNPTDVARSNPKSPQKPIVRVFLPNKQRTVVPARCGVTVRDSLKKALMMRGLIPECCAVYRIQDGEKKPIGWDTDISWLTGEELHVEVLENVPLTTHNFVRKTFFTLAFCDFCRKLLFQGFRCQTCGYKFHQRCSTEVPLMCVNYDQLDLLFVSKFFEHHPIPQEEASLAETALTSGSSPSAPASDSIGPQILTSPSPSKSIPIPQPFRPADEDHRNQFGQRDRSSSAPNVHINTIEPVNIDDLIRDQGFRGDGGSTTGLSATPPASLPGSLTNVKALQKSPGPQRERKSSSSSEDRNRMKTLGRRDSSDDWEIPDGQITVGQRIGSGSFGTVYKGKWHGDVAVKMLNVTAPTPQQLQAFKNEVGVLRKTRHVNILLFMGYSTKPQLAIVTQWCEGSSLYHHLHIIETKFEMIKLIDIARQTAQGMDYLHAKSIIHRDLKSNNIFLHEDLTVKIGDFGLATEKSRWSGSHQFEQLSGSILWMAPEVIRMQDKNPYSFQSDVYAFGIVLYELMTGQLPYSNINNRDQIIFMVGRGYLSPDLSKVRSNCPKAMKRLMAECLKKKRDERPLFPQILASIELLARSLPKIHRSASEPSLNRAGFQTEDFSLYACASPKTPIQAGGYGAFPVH
T1 sequence (Q96SW2 whole entry): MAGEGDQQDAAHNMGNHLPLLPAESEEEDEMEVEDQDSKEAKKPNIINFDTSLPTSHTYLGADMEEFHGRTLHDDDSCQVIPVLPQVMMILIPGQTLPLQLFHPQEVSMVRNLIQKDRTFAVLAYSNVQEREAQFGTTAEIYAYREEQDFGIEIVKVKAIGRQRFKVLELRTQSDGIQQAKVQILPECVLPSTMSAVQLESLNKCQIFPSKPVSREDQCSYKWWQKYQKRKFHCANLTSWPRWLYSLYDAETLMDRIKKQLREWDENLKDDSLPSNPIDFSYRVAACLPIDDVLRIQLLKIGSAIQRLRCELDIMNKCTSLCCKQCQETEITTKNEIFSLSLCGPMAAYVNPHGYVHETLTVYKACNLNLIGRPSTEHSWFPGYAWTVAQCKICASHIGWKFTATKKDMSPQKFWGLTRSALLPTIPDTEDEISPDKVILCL
T1 sequence (Q16531 whole entry partner): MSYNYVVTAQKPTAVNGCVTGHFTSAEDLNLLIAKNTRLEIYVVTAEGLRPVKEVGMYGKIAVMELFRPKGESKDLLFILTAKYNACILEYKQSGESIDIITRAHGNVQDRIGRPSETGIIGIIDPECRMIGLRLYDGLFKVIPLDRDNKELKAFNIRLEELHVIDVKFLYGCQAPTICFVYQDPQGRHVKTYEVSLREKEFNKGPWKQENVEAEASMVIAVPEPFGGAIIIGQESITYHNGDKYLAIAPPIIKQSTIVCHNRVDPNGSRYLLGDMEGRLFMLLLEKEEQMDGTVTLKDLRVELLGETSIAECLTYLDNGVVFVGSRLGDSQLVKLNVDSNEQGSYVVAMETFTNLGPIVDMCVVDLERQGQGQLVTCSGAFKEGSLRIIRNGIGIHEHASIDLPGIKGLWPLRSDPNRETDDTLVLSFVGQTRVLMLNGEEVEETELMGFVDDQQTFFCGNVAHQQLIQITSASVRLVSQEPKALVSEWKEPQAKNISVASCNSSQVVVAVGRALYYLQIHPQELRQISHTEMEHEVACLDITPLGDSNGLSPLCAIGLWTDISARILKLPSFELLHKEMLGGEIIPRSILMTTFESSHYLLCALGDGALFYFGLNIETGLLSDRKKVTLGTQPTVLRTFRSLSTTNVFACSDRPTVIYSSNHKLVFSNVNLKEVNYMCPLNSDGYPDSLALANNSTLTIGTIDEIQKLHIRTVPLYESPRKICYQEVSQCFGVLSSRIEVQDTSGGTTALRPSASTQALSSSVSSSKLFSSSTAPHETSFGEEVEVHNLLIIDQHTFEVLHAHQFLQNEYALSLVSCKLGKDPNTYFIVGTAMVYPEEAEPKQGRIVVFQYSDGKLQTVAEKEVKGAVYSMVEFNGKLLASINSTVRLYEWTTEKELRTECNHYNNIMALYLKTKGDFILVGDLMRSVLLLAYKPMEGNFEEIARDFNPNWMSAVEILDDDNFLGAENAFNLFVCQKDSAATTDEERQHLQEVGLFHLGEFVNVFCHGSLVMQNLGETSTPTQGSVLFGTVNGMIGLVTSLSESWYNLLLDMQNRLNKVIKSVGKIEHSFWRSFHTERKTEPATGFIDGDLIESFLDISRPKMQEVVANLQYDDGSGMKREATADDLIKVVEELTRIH
The test is described as follows: BRAF V600E HiBiT Degradation Assay. The test is classed as cell-based. Conditions: A375.10 cells, BRAF V600E. How it is done: Compounds of this invention were tested for degradation of mutant BRAF V600E using the HiBiT assay, a luminescence-based assay for quantification of cellular protein levels using the Nano-Glo® HiBiT Lytic Detection System (Catalog No. N3050, Promega, Madison, WI USA). This assay utilizes the HiBiT tag on a protein of interest, which creates a luminescent signal in the presence of a complementing peptide and its substrate, the quantification of which is proportional to the amount of HiBiT-tagged protein in the cell.
The cell line A375, which is homozygous for the BRAF V600E mutation, was purchased from ATCC (Catalog No. CRL-1619, Manassas, VA, USA). A375 cells were engineered to express HiBiT tagged BRAF V600E by CRISPR knock-in of the HiBiT tag to the endogenous BRAF V600E locus, followed by selection of a clonal population containing the appropriate knock-in (referred to here as cell line A375.10). A375.10 cells were maintained at 37° C. in an atmosphere of 5% CO2 in Dulbecco's modified Eagle Medium (DMEM) with high glucose (Catalog No. 11965092), supplemented with 10% fetal bovine serum (FBS; Catalog No. 10437036), and 10 mM HEPES (Catalog No. 15630130), all obtained from Thermofisher Scientific (Waltham, MA, USA). Cell culture flasks and 384-well microplates were acquired from VWR (Radnor, PA, USA).
Test compounds were prepared by dissolving neat compounds in DMSO (Catalog No. D8418, Sigma-Aldrich, Inc., St. Louis, MO, USA) to generate 10 mM stock solutions, which were serially diluted (half log) in DMSO to generate an 11-point dose series (1000× final treatment concentration) in a 384-Well Low Dead Volume Microplate (Catalog No. LP-0200, Labcyte, San Jose, CA, USA). Using the Echo 550 Acoustic Liquid Handler (Labcyte), 30 nL of serially diluted compound solutions were dispensed in duplicate to 384-well TC-treated microplates (Catalog No. 3571, Corning, Glendale, CA, USA) and 30 nL of DMSO was dispensed to control wells. A375.10 cells resuspended in growth media without phenol red (Catalog No. 21063-029, Thermofisher Scientific) were then added to 384-well plates containing the 11-point dose series of compounds in duplicate (maximum 10 μM concentration for final treatment) at a density of 12,000 cells/well in 30 μl. Plates were then spun briefly, and cells were incubated with compound at 37° C. for 2 hours, 6 hours, or 24 hours.
Following the appropriate treatment time, Nano-Glo® HiBiT Lytic Assay reagents were added to the cells per the manufacturer's instructions by adding 30 μl of reagent per well, and the luminescence signal was acquired by plate reader. Cells treated with DMSO only (no test compound treatment) were used as the negative control (N). Media only (no cells added) with Nano-Glo reagent addition was used as the background or positive control (P). The percent response of compound treated samples were calculated by subtracting out the background signal (P) and normalizing to the DMSO control (N) as follows.
% Response=100×(Treated Signal−Average (P))/(Average (N)−Average (P)).
Data were analyzed with a 4-parameter logistic fit to generate sigmoidal dose-response curves. The DC50 is the concentration of compound at which 50% of the cellular BRAF V600E has been degraded. The Emax, or maximum effect of each compound, represents the amount of residual protein remaining in the cell following compound treatment. The IP, or inflection point of the dose-response curve, is the concentration of compound at which 50% of the observed degradation response is achieved.
The experiment was conducted at least once for each compound. If the experiment was conducted multiple times, the data shown in the table is the average of the two or more experiments.
(In general: With HiBiT, luminescence reflects the tagged protein that the partner subunit can reach.)

Where [1] appears, read: 2 hours, inflection point, read-out: HiBiT-Degradation A375.10 BRAF 2 hours IP.
The mark [2] stands for this setting: 2 hours, read-out: HiBiT-Degradation A375.10 BRAF 2 hours DC50.
Where [3] appears, read: 2 hours, residual protein remaining.
The mark [4] stands for this setting: 6 hours, inflection point, read-out: HiBiT-Degradation A375.10 BRAF 6 hours IP.
Where [5] appears, read: 6 hours, read-out: HiBiT-Degradation A375.10 BRAF 6 hours DC50.
Where [6] appears, read: 6 hours, residual protein remaining.
Setting [7] is: HiBiT, 24 hours, read-out: HiBiT-Degradation A375.10 BRAF 24 hours DC50.
Where [8] appears, read: HiBiT, 24 hours, read-out: HiBiT-Degradation A375.10 BRAF 24 hours IP.
Setting [9] is: 2 hours, residual protein remaining, read-out: HiBiT-Degradation A375.10 BRAF 2 hours Emax.

Data on five molecules can be found in US20260297060A1, “COMPOUNDS FOR THE DEGRADATION OF MUTANT BRAF” (C4 THERAPEUTICS, INC., priority 2023, published 2026).

Structures are written as SMILES. Like-named read-outs stand apart in the source and are kept apart here. Where only a bound is given, the exact number is not on record here.

Broadly, the GI50 is the concentration giving 50% growth inhibition. A low value points to more potent growth inhibition. Regarding `CCN(C)S(=O)(=O)Nc1ccc(F)c(Oc2ccc3ncn(C4CC5(CCN(C6CCC(c7ccc(NC8CCC(=O)NC8=O)cc7F)CC6)CC5)C4)c(=O)c3c2)c1C#N` (single isomer, unassigned) [Compound 7, 6-[2-cyano-3-[[ethyl(methyl)sulfamoyl]amino]-6-fluoro-phenoxy]-3-[7-[4-[4-[(2,6-dioxo-3-piperidyl)amino]-2-fluoro-phenyl]cyclohexyl]-7-azaspiro[3.5]nonan-2-yl]-4-oxo-quinazoline], in the test with A375-NRAS^Q61K cells, the GI50 was less than 1 µM. The “CTGlo A375.11 96 hours Emax” value in the test with A375-NRAS^Q61K cells was “*** (<=50%)”. The DC50 at BRAF V600E (setting [1]), on BRAF V600E (setting [2]), on BRAF V600E (setting [4]), at BRAF V600E (setting [5]), on BRAF V600E (setting [7]) and on BRAF V600E (setting [8]) was less than 1 µM throughout. Further, the “HiBiT-Degradation A375.10 BRAF 2 hours Emax” value at BRAF V600E (setting [3]) is “*** (<=50%)”. Besides, the “HiBiT-Degradation A375.10 BRAF 6 hours Emax” value at BRAF V600E (setting [6]) is listed as “*** (<=50%)”. Besides, at BRAF V600E (HiBiT, 24 hours), the “HiBiT-Degradation A375.10 BRAF 24 hours Emax” value is given as “*** (<=50%)”.
`CO[C@H]1CCN(S(=O)(=O)Nc2ccc(F)c(Oc3ccc4ncn(C5CC6(CCN(C7CCC(c8cc9c(cc8F)c(N8CCC(=O)NC8=O)nn9C)CC7)CC6)C5)c(=O)c4c3)c2C#N)C1` (single isomer, unassigned) [Compound 104] showed a GI50 in the test on A375-NRAS^Q61K cells of 1 to 10 µM. In the test on A375-NRAS^Q61K cells, the “CTGlo A375.11 96 hours Emax” value was “** (<90% and >50%)”. Further, the DC50 on BRAF V600E (setting [1]), at BRAF V600E (setting [2]), at BRAF V600E (setting [4]), at BRAF V600E (setting [5]), on BRAF V600E (setting [7]) and at BRAF V600E (setting [8]) was less than 1 µM in each case. The “HiBiT-Degradation A375.10 BRAF 2 hours Emax” value on BRAF V600E (setting [3]) is listed as “*** (<=50%)”. For the same molecule, on BRAF V600E (setting [6]), the “HiBiT-Degradation A375.10 BRAF 6 hours Emax” value was “*** (<=50%)”. Also, at BRAF V600E (HiBiT, 24 hours), the “HiBiT-Degradation A375.10 BRAF 24 hours Emax” value is “*** (<=50%)”.
In the test with A375-NRAS^Q61K cells (Homo sapiens, 96 h), `CCN(C)S(=O)(=O)Nc1ccc(F)c(Oc2ccc3ncn(CCC4CCN(C5CCC(c6cc7c(cc6F)c(N6CCC(=O)NC6=O)nn7C)CC5)CC4)c(=O)c3c2)c1C#N` (single isomer, unassigned) [Compound 137, 6-[2-cyano-3-[[ethyl(methyl)sulfamoyl]amino]-6-fluoro-phenoxy]-3-[2-[1-[4-[3-(2,4-dioxohexahydropyrimidin-1-yl)-5-fluoro-1-methyl-indazol-6-yl]cyclohexyl]-4-piperidyl]ethyl]-4-oxo-quinazoline] came in with a GI50 of 1 to 10 µM. Also, the Emax with A375-NRAS^Q61K cells (Homo sapiens, 96 h) lay within 50 to 90%; at BRAF V600E (setting [9]), 50 to 90%. The DC50 on BRAF V600E (setting [1]) and at BRAF V600E (setting [2]) was less than 1 µM throughout.
As to `CCN(C)S(=O)(=O)Nc1ccc(F)c(Oc2ccc3ncn(C4CC5(CCN(C6CCC(c7cc8c(cc7F)c(N7CCC(=O)NC7=O)nn8C)CC6)CC5)C4)c(=O)c3c2)c1C#N` (single isomer, unassigned) [Compound 9, 6-[2-cyano-3-[[ethyl(methyl)sulfamoyl]amino]-6-fluoro-phenoxy]-3-[7-[4-[3-(2,4-dioxohexahydropyrimidin-1-yl)-5-fluoro-1-methyl-indazol-6-yl]cyclohexyl]-7-azaspiro[3.5]nonan-2-yl]-4-oxo-quinazoline], the GI50 in the test with A375-NRAS^Q61K cells was less than 1 µM. Also, the “CTGlo A375.11 96 hours Emax” value in the test on A375-NRAS^Q61K cells is “*** (<=50%)”. Also, the DC50 at BRAF V600E (setting [1]), at BRAF V600E (setting [2]), on BRAF V600E (setting [4]), at BRAF V600E (setting [5]), on BRAF V600E (setting [7]) and at BRAF V600E (setting [8]) was less than 1 µM throughout. For the same molecule, at BRAF V600E (setting [3]), the “HiBiT-Degradation A375.10 BRAF 2 hours Emax” value was “*** (<=50%)”. In addition, the Emax on BRAF V600E (6 hours, residual protein remaining, read-out: HiBiT-Degradation A375.10 BRAF 6 hours Emax) was less than 50%; at BRAF V600E (HiBiT, 24 hours, read-out: HiBiT-Degradation A375.10 BRAF 24 hours Emax) it was less than 50%.
In the test on A375-NRAS^Q61K cells, `CCN(C)S(=O)(=O)Nc1ccc(F)c(Nc2ccc3ncn([C@@H]4COC5(CCN(C6CCC(c7cc8c(cc7F)c(N7CCC(=O)NC7=O)nn8C)CC6)CC5)C4)c(=O)c3c2F)c1C#N` (single isomer, unassigned) [Compound 68] registered a GI50 of more than 10 µM. Also, the Emax in the test with A375-NRAS^Q61K cells (Homo sapiens, 96 h) is less than 50%; at BRAF V600E (setting [9]), less than 50%. The DC50 on BRAF V600E (setting [1]) and on BRAF V600E (setting [2]) was less than 1 µM in each case.
